Reference: patent publication US11414677B2, “Methods and compositions for performing continuous directed evolution” (Massachusetts Institute of Technology, priority 2017, dated 2022)

How the values were obtained:
[1] = test system: tTAwt.mCherry adenovirus; type: cell-based, Adenovirus type 5
Protocol: FIGS. 21A-21C. FIG. 21A. […] HEK293A cells stably encoding the gene for adenoviral protease (AdProt) under control of the endogenous tTA operator are infected by an initial ratio of 1:100 or 1:1,000 tTAwt.mCherry to tTAmut.GFP viruses. Viral media was serially passaged onto a new plate of cells for three rounds. The viral populations were then determined via flow cytometry. FIG. 21B. Quantification of flow cytometry data from the competition experiment. […] The initial ratio of the 1:1,000 sample (labeled N.D.; not detectable) was not experimentally quantifiable owing to the low amount of tTAwt.mCherry adenovirus present, and was therefore derived by dilution of the 1:100 initial ratio. For raw flow cytometry data, see FIG. 26 and FIG. 27. FIG. 21C. […]
Adenoviral titers were determined through flow cytometry. […] 2-3 days post-infection, cells were washed once with media, stained with 0.2 μg/mL DAPI, and then analyzed on a BD LSR II Analyzer for fluorescent protein expression. Infectious titers were determined by measuring the percentage of cells infected by a known volume of virus. To minimize counting cells that were infected by more than one virus and to minimize any background fluorescence, data were only considered if they fell within the linear range, which typically encompassed samples where 1-10% of cells were infected. […]

[2] = test system: tTAwt.mCherry adenovirus; assay: Doxycycline dose response of tTAwt.mCherry adenovirus titer in TRE3G.AdProt cells; type: cell-based, Adenovirus type 5; conditions: synchronous infection, various dox concentrations
Protocol: FIG. 36. Dose response of tTA-mCherry titer when treated with doxycycline. […] Titer is given in “infectious units per mL” (IU/mL), which is defined as the number of viruses per mL that are able to elicit a fluorescent signal in cells when analyzed by flow cytometry.
A semi-confluent dish of TRE3G.AdProt cells (˜160,000 cells) (TABLE 13) was infected with tTAwt. mCherry adenovirus (multiplicity of infection ˜2.5) (TABLE 12). After 3 h, the cells were washed twice, and fresh tet-approved media (Takara Bio) supplemented with various concentrations of dox was added. 5 days later, the virus lysates were harvested and viral titers were analyzed by flow cytometry.

[3] = test system: RFP.ΔAdPol.adenovirus; assay: Time course of antibiotic inhibition of adenoviral replication; type: cell-based, Adenovirus type 5; conditions: treatment initiated 24 h post-infection
Description: FIGS. 47A-47B. Time-course of antibiotic-mediated inhibition of adenoviral infection. HEK293A cells expressing wild-type AdPol were infected with RFP.ΔAdPol.adenovirus and treated with either a) puromycin, or b) blasticidin at various time points post-infection (h.p.i.=hours post-infection). After 2 days, the infections were harvested and titered by flow cytometry. Titers are given in infectious units per milliliter (IU/mL), defined as the volume of adenoviral supernatant required to induce fluorescence in a cell as analyzed by flow cytometry. Dashed line represents the limit of detection (L.O.D) of the assay. Titers below this limit are inaccurate due to the percentage of infected cells being below the 1% error threshold of flow cytometry.
RFP.ΔAdPol.adenovirus (TABLE 16) was used to infect a 24-well plate of wild-type AdPol cells (150,000 cells/well) (TABLE 17) at MOI=1, and either blasticidin or puromycin was added at various time points following the infection. Viral supernatants were harvested ˜48 h post-infection, and titered by flow cytometry as described above.

[4] = test system: 1:10 mixture of tTA.mCherry.ΔAdPol.adenovirus and CFP.GFP.ΔAdPol.adenovirus; assay: Enrichment of tTA-expressing adenovirus by blasticidin selection in TRE3G.blastR cells; type: cell-based, Adenovirus type 5; conditions: 20 μM blasticidin, added 10 h post-infection
Protocol: FIG. 49. Enrichment of adenoviruses encoding positive BOI variants by antibiotic selection. TRE3G.blastR cells were infected with a 1:10 mixture of ΔAdPol.adenovirus encoding either tTA (+tTA) or CFP (−tTA) and treated with blasticidin 10 h post-infection. Two days post-infection, adenoviruses were harvested and titered by flow cytometry. Titers are given in infectious units per milliliter (IU/mL), defined as the volume of adenoviral supernatant required to induce fluorescence in a cell as analyzed by flow cytometry. Dashed line represents the limit of detection (L.O.D) of the assay. Titers below this limit are inaccurate due to the percentage of infected cells being below the 1% error threshold of flow cytometry.
A 1:10 mixture of tTA.mCherry.ΔAdPol.adenovirus and CFP.GFP.ΔAdPol.adenovirus (TABLE 16) was used to infect a 24-well plate of TRE3G.blastR cells (150,000 cells/well) (TABLE 17) at MOI=0.7, and blasticidin was added 10 h post-infection. Viral supernatants were harvested ˜48 h post-infection, and titered by flow cytometry as described above.

[5] = test system: ΔAdPol.adenovirus encoding either tTA or RFP; assay: tTA-induced resistance to antibiotic inhibition of adenoviral replication; type: cell-based, Adenovirus type 5; conditions: treatment 10 h post-infection
Protocol: FIGS. 48A-48D. tTA-induced resistance to antibiotic mediated inhibition of adenoviral infection. Either wild-type AdPol cells, TRE3G.puroR cells, or TRE3G.blastR cells were infected with ΔAdPol.adenovirus encoding either tTA (+tTA) or RFP (−tTA). Ten hours post-infection, wild-type AdPol cells were treated with either puromycin (FIG. 48A) or (FIG. 48B) blasticidin, TRE3G.puroR cells were treated with puromycin (FIG. 48C), and TRE3G.blastR cells were treated with blasticidin (FIG. 48D). After 2, days, the infections were harvested and titered by flow cytometry. Titers are given in infectious units per milliliter (IU/mL), defined as the volume of adenoviral supernatant required to induce fluorescence in a cell as analyzed by flow cytometry. Dashed line represents the limit of detection (L.O.D) of the assay. Titers below this limit are inaccurate owing to the percentage of infected cells being below the 1% error threshold of flow cytometry.
Either RFP.ΔAdPol.adenovirus, or tTA.mCherry.ΔAdPol.adenovirus (TABLE 16) was used to infect a 24-well plate of either wild-type AdPol cells, TRE3G.puroR cells, or TRE3G.blastR cells (150,000 cells/well) (TABLE 17) at MOI=1, and either puromycin or blasticidin was added 10 h post-infection. Viral supernatants were harvested ˜48 h post-infection, and titered by flow cytometry as described above.

[6] = test system: HEK293A cells; assay: Resazurin assay to assess acute toxicity of common tissue culture antibiotics; type: cell-based, human; conditions: two-day treatment
Protocol: FIGS. 46A-46D. Resazurin assay to assess acute toxicity of common tissue culture antibiotics. HEK293A cells were treated for two days with either G418 (FIG. 46A), puromycin (FIG. 46B), blasticidin (FIG. 46C), or hygromycin (FIG. 46D), and cell viability was analyzed by resazurin fluorescence.
A 96-well plate was seeded with HEK293A cells (˜15,000) and treated with either puromycin HCl (Corning), Hygromycin B (Thermo Fisher), Blasticidin S HCl (Thermo Fisher), or G418 (Enzo). Two days later, 10 μL of 0.1 mg/mL resazurin (MilliporeSigma) was added and incubated for 1.5 h. Media was transferred to a fresh 96-well plate and fluorescence was analyzed on a Bio-Tek Synergy H1 Hybrid Microplate Reader.

[7] = test system: AdGLΔPol adenoviral genome; conditions: high fidelity deep sequencing by Sanjuán and co-workers (Risso-Ballester et al. 2016); cited from earlier work

Molecule: C[C@H]1c2cccc(O)c2C(=O)C2=C(O)[C@]3(O)C(=O)C(C(N)=O)=C(O)[C@@H](N(C)C)[C@@H]3[C@@H](O)[C@@H]21 [dox, doxycycline]
- decrease in viral titer [1]: ~10 fold
- modulation of adenoviral titers [2]: ~10 fold

Molecule: CN(CC[C@H](N)CC(=O)N[C@H]1C=C[C@H](n2ccc(N)nc2=O)O[C@@H]1C(=O)O)C(=N)N [blasticidin]
- inhibition of adenoviral replication [3]: Neither puromycin nor blasticidin were able to inhibit adenoviral replication
- drop of CFP.ΔAdPol.adenovirus titer [4]: over 100 fold
- tTA.mCherry.ΔAdPol.adenovirus titer [4]: remained steady
- effect on RFP.ΔAdPol.adenovirus ([5]; TRE3G.blastR cell line): still inhibited
- effect on tTA.ΔAdPol.adenovirus ([5]; TRE3G.blastR cell line): completely resistant to blasticidin treatment
- effect on ΔAdPol.adenovirus replication ([5]; wild-type AdPol cell line): inhibited both RFP-expressing and tTA-expressing ΔAdPol.adenovirus replication
- dynamic range of inhibitory concentrations [6]: over two orders of magnitude
- acute toxicity (cell viability by resazurin fluorescence) ([6]; various concentrations): completely toxic

B1: AdPol: high fidelity wild-type adenovirus type-5 DNA polymerase (protein, UniProt P04495 1-1198, looked up)
DNA polymerase: MALVQAHRARRLHAEAPDSGDQPPRRRVRQQPTRAAPAPARARRRRAPAPSPGGSGAPPTSGGSPASPLLDASSKDTPAAHRPPRGTVVAPRGCGLLQAIDAATNQPLEIRYHLDLARALTRLCEVNLQELPPDLTPRELQTMDSSHLRDVVIKLRPPRADIWTLGSRGVVVRSTVTPLEQPDGQGQAAEVEDHQPNPPGEGLKFPLCFLVRGRQVNLVQDVQPVHRCQYCARFYKSQHECSARRRDFYFHHINSHSSNWWREIQFFPIGSHPRTERLFVTYDVETYTWMGAFGKQLVPFMLVMKFGGDEPLVTAARDLAANLGWDRWEQDPLTFYCITPEKMAIGRQFRTFRDHLQMLMARDLWSSFVASNPHLADWALSEHGLSSPEELTYEELKKLPSIKGIPRFLELYIVGHNINGFDEIVLAAQVINNRSEVPGPFRITRNFMPRAGKILFNDVTFALPNPRSKKRTDFLLWEQGGCDDTDFKYQYLKVMVRDTFALTHTSLRKAAQAYALPVEKGCCAYQAVNQFYMLGSYRSEADGFPIQEYWKDREEFVLNRELWKKKGQDKYDIIKETLDYCALDVQVTAELVNKLRDSYASFVRDAVGLTDASFNVFQRPTISSNSHAIFRQIVFRAEQPARSNLGPDLLAPSHELYDYVRASIRGGRCYPTYLGILREPLYVYDICGMYASALTHPMPWGPPLNPYERALAARAWQQALDLQGCKIDYFDARLLPGVFTVDADPPDETQLDPLPPFCSRKGGRLCWTNERLRGEVATSVDLVTLHNRGWRVHLVPDERTTVFPEWRCVAREYVQLNIAAKERADRDKNQTLRSIAKLLSNALYGSFATKLDNKKIVFSDQMDAATLKGITAGQVNIKSSSFLETDNLSAEVMPAFQREYSPQQLALADSDAEESEDERAPTPFYSPPSGTPGHVAYTYKPITFLDAEEGDMCLHTLERVDPLVDNDRYPSHLASFVLAWTRAFVSEWSEFLYEEDRGTPLEDRPLKSVYGDTDSLFVTERGHRLMETRGKKRIKKHGGNLVFDPERPELTWLVECETVCGACGADAYSPESVFLAPKLYALKSLHCPSCGASSKGKLRAKGHAAEGLDYDTMVKCYLADAQGEDRQRFSTSRTSLKRTLASAQPGAHPFTVTQTTLTRTLRPWKDMTLARLDEHRLLPYSESRPNPRNEEICWIEMP
- estimated mutation rate [7]: ~1.3×10^−7 mutations per base per viral passage
